Test results published in patent US20250206738A1, “WRN INHIBITORS” (Nimbus Wadjet, Inc., priority 2023, published 2025).

Legend:
[1] = tested on: p21 induction in HCT 116 cells; assay: p21 induction in cells (In-Cell Western, p21/GAPDH ratio); assay type: cell-based; details: Homo sapiens, HCT-116, 24 h, 24 h compound incubation, read-out: P21_EC50
In short: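 HCT 116 cells treated 24 h at 37° C with 11-point, 2-fold dilutions starting typically at 10 μM, in duplicate. Fixed cells immunostained for p21 and GAPDH; 800/700 nm ratio normalised between DMSO and reference WRN inhibitor controls as percent activation. EC50 from non-linear regression.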

[2] = molecular target: T1, human Werner helicase (WRN, Uniprot Q14191, amino acids 517-1235 with L1074F point mutation; WRN-BV08) (Homo sapiens, UniProt Q14191, L1074F); assay: WRN (BV08) ADP-Glo assay; assay type: biochemical; details: WRN-BV08 (aa 517-1235, L1074F); read-out: ADP-Glo_hWRN_IC50
T1 construct: Uniprot Q14191, amino acids 517-1235 with L1074F point mutation; 8xHis (C, cleaved yes); TEV cleavage site (ENLYFQG) (C, cleaved yes); made in house; host or cells: Sf9 insect cells (baculovirus, pFastBac)
T1 sequence (Q14191 with tags, fused parts or gaps L1074F): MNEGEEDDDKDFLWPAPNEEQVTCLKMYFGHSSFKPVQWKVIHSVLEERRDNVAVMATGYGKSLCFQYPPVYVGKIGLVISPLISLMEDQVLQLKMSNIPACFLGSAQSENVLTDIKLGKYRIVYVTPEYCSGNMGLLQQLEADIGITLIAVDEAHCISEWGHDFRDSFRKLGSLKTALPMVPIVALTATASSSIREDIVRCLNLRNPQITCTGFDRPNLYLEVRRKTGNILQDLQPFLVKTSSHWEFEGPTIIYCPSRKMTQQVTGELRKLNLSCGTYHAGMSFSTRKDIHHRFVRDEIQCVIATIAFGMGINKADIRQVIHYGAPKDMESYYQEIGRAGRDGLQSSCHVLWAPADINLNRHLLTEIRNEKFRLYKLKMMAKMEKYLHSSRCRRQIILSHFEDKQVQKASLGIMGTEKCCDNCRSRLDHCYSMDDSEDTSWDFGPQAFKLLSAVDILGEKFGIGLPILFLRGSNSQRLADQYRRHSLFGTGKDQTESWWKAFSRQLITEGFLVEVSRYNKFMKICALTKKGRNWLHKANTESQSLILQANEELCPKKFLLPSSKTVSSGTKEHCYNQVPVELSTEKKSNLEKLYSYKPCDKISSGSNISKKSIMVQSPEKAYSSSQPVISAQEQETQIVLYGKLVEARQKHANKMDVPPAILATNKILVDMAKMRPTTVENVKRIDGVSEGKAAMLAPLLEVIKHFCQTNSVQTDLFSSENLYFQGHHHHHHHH
In short: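 WRN 517-1235 (L1074F, untagged, Sf9-expressed), 0.15 nM, preincubated with compound 15 min at 25 °C, then 60 min with […] and 0.1 nM DNA duplex in Bicine pH 7.5, 1 mM MgCl2, 1% DMSO. ADP-Glo luminescence; % inhibition vs NSC-617145 control, four-parameter IC50 fit.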

Row | EC50 [1] [nM] | IC50 [2] [nM] | SMILES
1 | > 5000 | 100 to 500 | CCc1c(N2CCN(C(=O)c3cnn(C)c3)CC2)c(=O)n2nc(-c3ccnc(OC)c3)nc2n1CC(=O)NC1(C(O)c2ccccc2)CC1 (stereo not shown) [I-250, 2-(5-ethyl-2-(2-methoxypyridin-4-yl)-6-(4-(1-methyl-1H-pyrazole-4-carbonyl)piperazin-1-yl)-7-oxo-[1,2,4]triazolo[1,5-a]pyrimidin-4(7H)-yl)-N-(1-(hydroxy(phenyl)methyl)cyclopropyl)acetamide]
2 | 500 to 2000 | 5 to 50 | CCc1c(N2CCN(C(=O)c3cccc4ncoc34)[C@H]3CC[C@@H]32)c(=O)n2nc(C3=CCOCC3)nc2n1CC(=O)NC12CC(C(C)C)(C1)C2 [I-214, 2-(6-((1S,6S)-5-(benzo[d]oxazole-7-carbonyl)-2,5-diazabicyclo[4.2.0]octan-2-yl)-2-(3,6-dihydro-2H-pyran-4-yl)-5-ethyl-7-oxo-[1,2,4]triazolo[1,5-a]pyrimidin-4(7H)-yl)-N-(3-isopropylbicyclo[1.1.1]pentan-1-yl)acetamide]
3 | ≤ 500 | 5 to 50 | CCc1c(N2CCN(C(=O)c3c(O)ccc4ncoc34)CC2)c(=O)n2nc(-c3ccnc(OC)c3)nc2n1CC(=O)NC12CC(C(F)(F)F)(C1)C2 [I-10, 2-(5-ethyl-6-(4-(6-hydroxybenzo[d]oxazole-7-carbonyl)piperazin-1-yl)-2-(2-methoxypyridin-4-yl)-7-oxo-[1,2,4]triazolo[1,5-a]pyrimidin-4(7H)-yl)-N-(3-(trifluoromethyl)bicyclo[1.1.1]pentan-1-yl)acetamide]
4 | 500 to 2000 | 5 to 50 | CCc1c(N2CCN(C(=O)c3ncnc(C)c3O)[C@H]3CC[C@@H]32)c(=O)c2nc(C)c(C)nc2n1CC(=O)NC12CC(C3CCC3)(C1)C2 [I-210, N-(3-cyclobutylbicyclo[1.1.1]pentan-1-yl)-2-(6-ethyl-7-((1S,6S)-5-(5-hydroxy-6-methylpyrimidine-4-carbonyl)-2,5-diazabicyclo[4.2.0]octan-2-yl)-2,3-dimethyl-8-oxopyrido[2,3-b]pyrazin-5(8H)-yl)acetamide]
5 | ≤ 500 | 5 to 50 | CCc1c(N2CCN(C(=O)c3ncnc(C)c3O)[C@H]3CC[C@@H]32)c(=O)n2nc(C3=CCOCC3)nc2n1CC(=O)NC12CC(C3CC3)(C1)C2 [I-225, N-(3-cyclopropylbicyclo[1.1.1]pentan-1-yl)-2-(2-(3,6-dihydro-2H-pyran-4-yl)-5-ethyl-6-((1S,6S)-5-(5-hydroxy-6-methylpyrimidine-4-carbonyl)-2,5-diazabicyclo[4.2.0]octan-2-yl)-7-oxo-[1,2,4]triazolo[1,5-a]pyrimidin-4(7H)-yl)acetamide]
6 | 500 to 2000 | 5 to 50 | CCc1c(N2CCN(C(=O)c3ncnc(C)c3O)C(C)(C)C2)c(=O)c2nn(-c3ccnc(OC)c3)nc2n1CC(=O)NC12CC(C3CC3)(C1)C2 [I-228, N-(3-cyclopropylbicyclo[1.1.1]pentan-1-yl)-2-(5-ethyl-6-(4-(5-hydroxy-6-methylpyrimidine-4-carbonyl)-3,3-dimethylpiperazin-1-yl)-2-(2-methoxypyridin-4-yl)-7-oxo-2,7-dihydro-4H-[1,2,3]triazolo[4,5-b]pyridin-4-yl)acetamide]
7 | > 5000 | 100 to 500 | CCc1c(N2CCN(C(=O)c3c(O)ccc4ncoc34)CC2)c(=O)n2nc(-c3ccnc(OC)c3)nc2n1CC(=O)NC12CC(C3COC3)(C1)C2 [I-46, 2-(5-ethyl-6-(4-(6-hydroxybenzo[d]oxazole-7-carbonyl)piperazin-1-yl)-2-(2-methoxypyridin-4-yl)-7-oxo-[1,2,4]triazolo[1,5-a]pyrimidin-4(7H)-yl)-N-(3-(oxetan-3-yl)bicyclo[1.1.1]pentan-1-yl)acetamide]
8 | 500 to 2000 | 5 to 50 | CCc1c(N2CCN(C(=O)c3ncnc(C)c3O)[C@H]3CCC[C@H]32)c(=O)c2nn(-c3ccnc(OC)c3)nc2n1CC(=O)NC12CC(C(C)C)(C1)C2 (relative stereo) [I-93, rel-2-{6-[(4aR,7aS)-4-(5-hydroxy-6-methylpyrimidine-4-carbonyl)-octahydro-1H-cyclopenta[b]pyrazin-1-yl]-5-ethyl-2-(2-methoxypyridin-4-yl)-7-oxo-2H,4H,7H-[1,2,3]triazolo[4,5-b]pyridin-4-yl}-N-[3-(propan-2-yl)bicyclo[1.1.1]pentan-1-yl]acetamide]
9 | 500 to 2000 | 5 to 50 | CCc1c(N2CCN(C(=O)c3ncnc(C)c3O)[C@H]3CC[C@@H]32)c(=O)c2nc(C)c(C)nc2n1CC(=O)NC12CC(C3CC3)(C1)C2 [I-227, N-(3-cyclopropylbicyclo[1.1.1]pentan-1-yl)-2-(6-ethyl-7-((1S,6S)-5-(5-hydroxy-6-methylpyrimidine-4-carbonyl)-2,5-diazabicyclo[4.2.0]octan-2-yl)-2,3-dimethyl-8-oxopyrido[2,3-b]pyrazin-5(8H)-yl)acetamide]
10 | ≤ 500 | ≤ 5 | CCc1c(N2CCN(C(=O)c3c(O)ccc4ncoc34)CC2)c(=O)n2nc(-c3ccnc(OC)c3)nc2n1CC(=O)NC12CC(C3CCC3)(C1)C2 [I-28, N-(3-cyclobutylbicyclo[1.1.1]pentan-1-yl)-2-(5-ethyl-6-(4-(6-hydroxybenzo[d]oxazole-7-carbonyl)piperazin-1-yl)-2-(2-methoxypyridin-4-yl)-7-oxo-[1,2,4]triazolo[1,5-a]pyrimidin-4(7H)-yl)acetamide]
11 | > 5000 | 100 to 500 | CCc1c(N2CCN(C(=O)c3ncnc(C)c3O)CC2)c(=O)n2nc(-c3ccnc(OC)c3)nc2n1CC(=O)NC1CC(C(F)(F)F)C1 (stereo not shown) [I-27, 2-(5-ethyl-6-(4-(5-hydroxy-6-methylpyrimidine-4-carbonyl)piperazin-1-yl)-2-(2-methoxypyridin-4-yl)-7-oxo-[1,2,4]triazolo[1,5-a]pyrimidin-4(7H)-yl)-N-(3-(trifluoromethyl)cyclobutyl)acetamide]
12 | 2000 to 5000 | 5 to 50 | CCc1c(N2CCN(C(=O)c3c(OC)ncc(C)c3O)CC2)c(=O)n2nc(C3=CCOCC3)nc2n1CC(=O)NC12CC(C(F)(F)F)(C1)C2 [I-236, 2-(2-(3,6-dihydro-2H-pyran-4-yl)-5-ethyl-6-(4-(4-hydroxy-2-methoxy-5-methylnicotinoyl)piperazin-1-yl)-7-oxo-[1,2,4]triazolo[1,5-a]pyrimidin-4(7H)-yl)-N-(3-(trifluoromethyl)bicyclo[1.1.1]pentan-1-yl)acetamide]
13 | > 5000 | 50 to 100 | CCc1c(N2CCN(C(=O)c3c(OC)ncc(C)c3O)CC2)c(=O)c2nc(N(C)C)cnc2n1CC(=O)NC12CC(C(F)(F)F)(C1)C2 [I-240, 2-(2-(dimethylamino)-6-ethyl-7-(4-(4-hydroxy-2-methoxy-5-methylnicotinoyl)piperazin-1-yl)-8-oxopyrido[2,3-b]pyrazin-5(8H)-yl)-N-(3-(trifluoromethyl)bicyclo[1.1.1]pentan-1-yl)acetamide]
14 | ≤ 500 | 5 to 50 | CCc1c(N2CCN(C(=O)c3c(O)ccc4ncoc34)CC2)c(=O)n2nc(C3=CCOCC3)nc2n1CC(=O)NC12CC(C3CC3)(C1)C2 [I-29, N-(3-cyclopropylbicyclo[1.1.1]pentan-1-yl)-2-(2-(3,6-dihydro-2H-pyran-4-yl)-5-ethyl-6-(4-(6-hydroxybenzo[d]oxazole-7-carbonyl)piperazin-1-yl)-7-oxo-[1,2,4]triazolo[1,5-a]pyrimidin-4(7H)-yl)acetamide]
